In PubChem BioAssay AID1508591:
Where a SMILES comes first, the peptide text is derived from it. [ ]: non-standard residue; d: D form. ξ: configuration not given here. ξLac(3-iPr) = CC(C)CC(O)C(=O)O; NMeV = CN[CH](C(=O)O)C(C)C; NMeA = CN[CH](C)C(=O)O; βAla = NCCC(=O)O

Conditions: rat; liver microsomes; pH 7.4; 15.0 min; 1.0 µM

| Structure (SMILES) | half-life |
| --- | --- |
| CC(=O)N1CCN(c2ccc(OCc3nn(C)c(C)c3-c3cccc4c(CCCOc5cccc6ccccc56)c(C(=O)O)n(Cc5cccnc5)c34)cc2)CC1 | 15 min |
| NC(=O)C(=O)N/N=C/c1ccc([N+](=O)[O-])o1 | > 30 min |
| CCC(CC)c1cc([C@H]2CN3CC[C@H]2C[C@@H]3CNC(=O)COc2ccccc2)nc(-c2ccncc2)n1 | 2.38 min |
| CC(=O)N[C@H]1CN(C2CCN(c3ccc(F)cc3C)CC2)C[C@@H]1C1CC1 | 2.3 min |
| NC[C@H](O)c1ccc(O)c(O)c1 | 13.4 min |
| COc1ccc(C(=O)NC2CCN(c3cnn(CC4CC4)c(=O)c3)CC2)c(OC)n1 | 13.9 min |
| COc1ccc2[nH]c(C[C@@H]3C[C@@H](C(C)C)[C@H](CNCc4ccccc4O)C=C3C)nc2n1 | 1.85 min |
| Oc1ccc(CNc2ccc(F)cc2F)c2cccnc12 | 3.19 min |
| CCOC(=O)c1ccc(-c2ccc3ncnc(NCCc4cnc[nH]4)c3c2)o1 | > 30 min |
| COc1ccc(-n2c(C)cc(-c3nnc4n3CCCCC4)c2C)cc1 | 2.4 min |
| COc1cc(-c2ccnc3c2c(C)nn3-c2ccc(C(F)(F)F)cc2)ccc1O | > 30 min |
| Cc1ccccc1C(=O)NC1CCN(c2ccc3nnc(C4CC4)n3n2)CC1 | > 30 min |
| COc1nccc(-c2nc(Nc3ccc(F)c(F)c3)c3ccccc3n2)c1Cl | > 30 min |
| Cc1cccc(CN2CCN(c3ccccn3)CC2)c1 | 2.4 min |
| Oc1ccc(CNc2cccnc2)c2cccnc12 | 3.56 min |
| COc1cc(-c2nc(Cn3nnc(C(=O)Nc4cc(C)cc(C)c4)c3C)c(C)o2)cc(OC)c1OC | 20.6 min |
| COc1ccc(NC(=O)c2[nH]c(C)c(C(C)=O)c2C)cc1S(=O)(=O)N1CCCCCC1 | 3 min |
| CCOC(=O)c1c[nH]c2c3c(ccc2c1=O)CCCC3 | 20.4 min |
| CC(=O)NC(c1cccs1)c1cc(Br)c2cccnc2c1O (stereo not drawn) | 5.21 min |
| CN(C)CCOC1=Cc2ccccc2Sc2ccc(Cl)cc21 | 1.29 min |
| COc1ccc(-c2ccc3ncc(Nc4ccc(C(N)=O)cc4)n3n2)cc1OC | > 30 min |

| Structure (SMILES) | half-life |
| --- | --- |
| CC(=O)c1c(C)[nH]c(C(=O)N(C)C)c1C | > 30 min |
| Cc1ccc2c(c1)/C(=C\c1cc(Cl)c(O)c(Cl)c1)C(=O)N2 | 22 min |
| N[C@H]1CN(c2c(F)cc3c(=O)c(C(=O)O)cn(C4C[C@@H]4F)c3c2Cl)CC12CC2 (stereo partly drawn) | > 30 min |
| CCC1=Nc2cc(C(=O)NC3CCCC3)ccc2Sc2ccc(Cl)cc21 | 1.61 min |
| Cc1cc(C)c(CNC(=O)c2nc(-c3ccc(F)cc3)cc3c2ccn3C(C)C)c(=O)[nH]1 | 7.89 min |
| Clc1ccc2ncc(-c3cccc(NC4CNC4)n3)n2c1 | 13.6 min |
| OC1(c2ccc(Cl)cc2)CCN(Cc2c[nH]c3ccccc23)CC1 | 3.89 min |
| CC(=O)O[C@H]1CC[C@]2(C)C(=CC[C@H]3[C@H]4C[C@H]5O[C@]6(CC[C@H](C)CN6)[C@H](C)[C@@H]5[C@]4(C)CC[C@@H]32)C1 | 1.58 min |
| Cc1cc(C)nc(NC(=S)N2CCN(c3ccncc3)CC2)c1 | > 30 min |
| Cc1cccc(-c2noc([C@@H]3Cc4nc[nH]c4CN3C(=O)CC(C)(C)CC(=O)O)n2)c1 | > 30 min |
| COc1ccc(CN(C2CCCCC2C)S(=O)(=O)c2ccc(S(=O)(=O)N(C)C)cc2)cc1OC (stereo not drawn) | 1.6 min |
| NC1CCN(c2nc(-c3ccc(Br)cc3)cs2)CC1 | > 30 min |
| CCOc1ccc(CCNC(=O)c2cc3sccc3n2C(C)C)cc1OCC | 1.7 min |
| Cc1noc(-c2cn(C3CCN(C(=O)c4ccc(OC(F)(F)F)cc4)CC3)nn2)n1 | > 30 min |
| CCOC(=O)N1CCN(Cc2nc3cc(NC(=O)c4ccc(OC)cc4)ccc3n2C(C)C)CC1 | 26 min |
| COC(=O)c1ccnc(NC(=S)N2CCN(c3cccc(C(F)(F)F)c3)CC2)c1 | > 30 min |
| COc1ccc(OC)c(-c2nnc3n2N=C(c2c(OC)cccc2OC)CS3)c1 | 1.4 min |
| Cc1ccnc(NC(=S)N2CCN(c3ccc(C(F)(F)F)cc3[N+](=O)[O-])CC2)c1 | > 30 min |
| O=C(CCCc1ccc2cccnc2n1)NCc1cc(-c2ccc(F)c(C(F)(F)F)c2)no1 | 9.4 min |
| CCC(C)C1NC(=O)C2CCCN2C(=O)C(CC(C)C)OC(=O)CCNC(=O)C(C)N(C)C(=O)C(C(C)C)N(C)C1=O (stereo not drawn) (cyclo([ξLac(3-iPr)]PI[NMeV][NMeA][βAla]); configuration not given here) | 18.1 min |
| Cc1ccccc1CSc1nc2ncc(Br)cc2[nH]1 | 7 min |

| Structure (SMILES) | half-life |
| --- | --- |
| COc1cccc(C(=O)Nc2ccc3c(N4CCOCC4)ncnc3c2)c1 | 27.3 min |
| Cc1ccccc1OCC(O)CO (stereo not drawn) | > 30 min |
| O=c1ncn2nc(Sc3ccc(F)cc3F)ccc2c1-c1c(Cl)cccc1Cl | > 30 min |
| CC(C)c1ccccc1-c1ncc(F)c(NC2(c3ccc(-c4cccnc4)cc3)CC2)n1 | 8.9 min |
| COCCCOc1ccnc(CS(=O)c2nc3ccccc3[nH]2)c1C (stereo not drawn) | 8.83 min |
| CS(=O)(=O)c1ccc2nc(NC(=O)C3CC3)sc2c1 | > 30 min |
| CC(=O)c1c(C)[nH]c(C(=O)Nc2ccc(Cl)cc2)c1C | > 30 min |
| O=C1CCCC2=C1C(c1[nH]ncc1Cl)N=C(Nc1nc3ccc(Cl)cc3o1)N2 (stereo not drawn) | 10 min |
| Cn1ncnc1[C@H]1c2n[nH]c(=O)c3cc(F)cc(c23)N[C@@H]1c1ccc(F)cc1 | > 30 min |
| CCOC(=O)Nc1cc(-c2ccc(C)c(NS(C)(=O)=O)c2)nn2c(C)nnc12 | > 30 min |
| Fc1cnc(-c2ccccc2C(F)F)nc1NCC1CCN(c2cnccn2)C1 (stereo not drawn) | 2.8 min |
| COC(=O)c1ccc(Oc2nc3c(c(=O)n(C)c(=O)n3C)n2CCC(C)C)cc1 | 2.7 min |
| CCN1CCN(c2ccc3cc(S(=O)(=O)N4CCOCC4)ccc3n2)CC1 | 16 min |
| COC(=O)c1ccc2c(C(=Nc3ccc(N(C)C(=O)CN4CCN(C)CC4)cc3)c3ccccc3)c(O)[nH]c2c1 | > 30 min |
| Oc1ccc(CNc2ccc(C(F)(F)F)cc2F)c2cccnc12 | 5.53 min |
| Fc1cnc(-c2ccccc2C(F)F)nc1NCC1CCN(c2cnccn2)CC1 | 3.4 min |
| CCN(CC)C(=O)c1sc2c(c1C)c(=O)n(Cc1ccccc1)c(=O)n2CC(=O)Nc1ccc(OC)cc1 | 5.16 min |
| Cc1cc(-c2nc(Nc3ccc(F)c(F)c3)c3ccccc3n2)cc(C)n1 | > 30 min |
| COc1ccc(C2(C(=O)N3CCC(n4cc(-c5nc(C)no5)nn4)CC3)CC2)cc1 | 7.38 min |
| CC(C)NC(=O)N1C[C@@H]2C[C@H](C1)c1ccc(-c3cccc(C(F)(F)F)c3)c(=O)n1C2 | 12.5 min |
| CC(=O)Nc1ccc(OCc2cn(CC(=O)c3ccc(O)cc3)nn2)cc1 | > 30 min |

The next lines start with the values.

| half-life | Structure (SMILES) |
| --- | --- |
| > 30 min | CN(C)[C@@H]1CCN(c2cccc(Nc3nn4c(=O)c5ccccc5nc4s3)c2)C1 |
| 1.8 min | CCOc1ccc(CCNC(=O)c2cc3sccc3n2Cc2ccccc2)c(F)c1OCC |
| 6.5 min | Cc1ccc(NS(=O)(=O)c2ccc(C(=O)Nc3nc(-c4ccccc4)cs3)cc2)cc1 |
| 2 min | CCOc1cc(CCNC(=O)c2cc3sccc3n2Cc2ccccc2)cc(F)c1OCC |
| 1.6 min | COc1ccc(S(=O)(=O)Nc2cnccc2C(=O)Nc2nc(-c3ccccc3)cs2)cc1 |
| 10 min | c1ccc2c(NC3CCCCC3)nc(-c3ccncc3)nc2c1 |
| > 30 min | C#CCOc1ccc(-c2nnc(Nc3ccc(NC(C)=O)cc3)c3ccccc23)cc1 |
| 11 min | Cc1ccc(S(=O)(=O)Nc2ccc(C(=O)Nc3ncc(-c4ccccc4)s3)cc2)cc1 |
| 11 min | COc1cccc(CNc2ccc(S(=O)(=O)Nc3nccs3)cc2)c1OC |
| 23.8 min | Cc1ccc(-c2cc(C(=O)Nc3ccccn3)c3ccccc3n2)cc1 |
| > 30 min | O=C(Cc1ccc(Cl)c(Cl)c1)Nc1ccc(S(=O)(=O)Nc2cncnc2)cc1 |
| > 30 min | CC1=C(C(=O)Nc2nncs2)C(c2ccccc2Br)N=C(Nc2nc3ccccc3o2)N1 (stereo not drawn) |
| 5.8 min | CNc1oc(-c2ccccc2-c2ccccc2)nc1C#N |
| 15 min | CN1C(=O)c2ccccc2[S@](=O)c2ccc(C(=O)NCc3ccc(Cl)cc3)cc21 |
| 7.5 min | O=S(=O)(Nc1nccs1)c1ccc(NCc2ccc(Cl)cc2O)cc1 |
| 2.03 min | Oc1ccc(NCc2ccccc2OCc2ccccc2Cl)cc1 |
| 7.7 min | COc1ccc(NC(=O)c2ccccc2)cc1S(=O)(=O)Nc1ccc(Br)cc1 |
| 1.98 min | COC(=O)c1ccnc(-c2cc(C(=O)NCCc3ccccc3)ccn2)c1 |
| 5.38 min | COC(=O)CNC(=O)c1nc(-c2ccccc2OC)c2ccccn12 |
| > 30 min | O=C(Nc1ncc(Cc2ccccc2)s1)c1ccc(-c2cccc([N+](=O)[O-])c2)o1 |

| half-life | Structure (SMILES) |
| --- | --- |
| 2.34 min | COc1ccc(-c2csc(NC(=O)c3ccccc3NS(=O)(=O)c3ccc(C)cc3)n2)cc1 |
| > 30 min | O=C(NCCCN1CCCC1=O)c1ccc(-c2ncc3cnc(-c4ccccc4)cn23)cc1 |
| 1.5 min | CCCc1ccc(NC(=O)c2ccc3c(c2)NC(=O)CS3)cc1 |
| 4.4 min | CC(=O)c1ccc(-c2csc(N3CCC(C(N)=O)CC3)n2)cc1 |
| 1.9 min | CCOC(=O)c1csc(NC(=O)c2ccncc2NS(=O)(=O)c2ccc(C)cc2)n1 |
| > 30 min | Cc1ccc(-c2cc(C(=O)Nc3ccc(C#N)cc3)c3ccccc3n2)cc1C |
| 5.78 min | CCCCNc1oc(-c2cccc3ccccc23)nc1C#N |
| > 30 min | CC1=C(C(=O)Nc2ccccc2Cl)C(c2ccccc2Br)N=C(Nc2nc3ccccc3o2)N1 (stereo not drawn) |
| > 30 min | Cc1c(-c2nsc(NC(=O)c3cccc(Cl)c3)n2)nnn1-c1ccccc1C(F)(F)F |
| 2.8 min | CCc1ccc(NC(=O)c2cc3ncccn3n2)cc1 |
| 13 min | c1ccc2c(Nc3ccn[nH]3)nc(-c3ccncc3)nc2c1 |
| 1.14 min | Fc1cccc(CN2CCNc3cc(Nc4ccccc4)ncc3C2)c1 |
| 8.4 min | O=C1CCCC2=C1C(c1ccccc1I)N=C(Nc1nc3ccccc3o1)N2 (stereo not drawn) |
| 1.07 min | CCN(CC)C(=O)N1c2ccccc2C=Cc2ccccc21 |
| 4.6 min | Cc1ccc(S(=O)(=O)Nc2cc(F)c(F)cc2C(=O)Nc2nc(-c3ccccc3)cs2)cc1 |
| 9.24 min | CCOc1ccc(-c2csc(N3CCC(C(N)=O)CC3)n2)cc1 |
| 14 min | CC[S+](=O)([O-])Nc1ccccc1C(=O)Nc1nc(-c2ccccc2)cs1 |
| 11.9 min | O=C(NC1CCCc2c1cnn2-c1cccc(O)c1)c1ccccn1 (stereo not drawn) |
| 1.65 min | CC(C)N(CCC(=O)c1ccc2ccccc2c1)Cc1ccccc1 |
| 4.7 min | COc1ccc(-c2csc(NC(=O)c3ccncc3NS(=O)(=O)c3ccc(C)cc3)n2)cc1 |
